Patent US9562031B1, “Phenethyldihydrobenzodioxolones and methods of use” (Sequoia Sciences, Inc., priority 2015, dated 2017)
Like-named read-outs stand apart in the source and are kept apart here.

Tests used:
[1] = test system: M14 (amelanotic melanoma) cells; assay: antiproliferation assay (72 h, CELLTITER 96), M14; assay type: cell-based, human; settings: Homo sapiens
Experimental: (§1) All of the compounds shown in Table 3-Table 8 below were prepared synthetically as described in EXAMPLE I. The compounds were tested for their ability to inhibit the proliferation of human cancer cells in vitro as described in the following paragraph. Table 3-Table 8 list the IC50 values in the M14 and NCI-H460 human cancer cell lines. IC50 is defined as the concentration of compound necessary to achieve 50% of the maximum growth inhibition.
(§2) For the antiproliferation assay, NCI-H460 (large cell lung carcinoma) or M14 (amelanotic melanoma) cells were grown in RPMI-1640 with 10% FBS supplemented with L-glutamine and HEPES. Cells were seeded into 96-well plates at 5×10^2 to 5×10^4 cells/well and allowed to adhere overnight; the medium was then removed. A stock solution of test compound in DMSO was diluted in medium to generate a series of working solutions. Aliquots (100 μl) of the working solutions were then added to the appropriate test wells to expose cells to the final concentrations of compound in a total volume of 100 μl. Seven different concentrations were tested, with 2-5 wells per concentration. Camptothecin was used as a positive control; wells containing vehicle without compound were used as negative controls. Plates were kept for 72 h in a 37° C., 5% CO2 incubator. After incubation, viable cells were detected with the CELLTITER 96 AQueous Non-Radioactive Cell Proliferation Assay (Promega), and IC50 values were determined using GraphPad Prism 5 software.

[2] = test system: NCI-H460 (large cell lung carcinoma) cells; assay: antiproliferation assay (72 h, CELLTITER 96), NCI-H460; assay type: cell-based, human; settings: Homo sapiens
Experimental: as §1, §2

[3] = NCI-H460, Table 5, read-out: NCI-H460 IC50
[4] = NCI-H460, Table 3, read-out: NCI-H460 IC50
[5] = NCI-H460, Table 7, read-out: NCI-H460 IC50
[6] = NCI-H460, stereoisomers of compound 4, Table 1, read-out: IC50 NCI-H460

IC50 ([1]; Table 3) [nM]	IC50 [2, 4] [nM]	SMILES	also measured
		C=CCC1C[C@]2([C@@H](C)Cc3cc(F)c(NC)cc3F)OCOC2=CC1=O (mixture of isomers) [Compound 45, 6-allyl-7a-(1-(2,5-difluoro-4-(methylamino)phenyl)propan-2-yl)-7,7a-dihydrobenzo[d][1,3]dioxol-5(6H)-one]	IC50 ([1]; Table 5): 98 nM; IC50 [2, 3]: 340 nM
13	77	C=CC[C@H]1C[C@]2([C@H](C)Cc3ccc(OC)cc3F)OCOC2=CC1=O (relative stereo) [Compound 3, 6-allyl-7a-(1-(2-fluoro-4-methoxyphenyl)propan-2-yl)-7,7a-dihydrobenzo[d][1,3]dioxol-5(6H)-one]	
		C=CC[C@H]1C[C@]2([C@H](C)Cc3cc(F)c(NC)cc3F)OCOC2=CC1=O (relative stereo) [Compound 44, 6-allyl-7a-(1-(2,5-difluoro-4-(methylamino)phenyl)propan-2-yl)-7,7a-dihydrobenzo[d][1,3]dioxol-5(6H)-one]	IC50 ([1]; Table 5): 16 nM; IC50 [2, 3]: 68 nM
		COc1ccc(C[C@H](C)[C@]23C[C@H](CC4CC4)C(=O)C=C2OCO3)c(F)c1 (relative stereo) [Compound 63, (7aR)-6-(cyclopropylmethyl)-7a-((S)-1-(2-fluoro-4-methoxyphenyl)propan-2-yl)-7,7a-dihydrobenzo[d][1,3]dioxol-5(6H)-one]	IC50 ([1]; Table 7): > 20000 nM; IC50 [2, 5]: 1700 nM
		COc1ccc(C[C@H](C)[C@]23C[C@H](C/C=C/c4ccccc4)C(=O)C=C2OCO3)cc1OC (relative stereo) [Compound 71, (6S,7aR)-6-cinnamyl-7a-((S)-1-(3,4-dimethoxyphenyl)propan-2-yl)-7,7a-dihydrobenzo[d][1,3]dioxol-5(6H)-one]	IC50 ([1]; Table 7): 6400 nM; IC50 [2, 5]: 14000 nM
52	71	C=CC[C@H]1C[C@]2(C(C)Cc3cc(NC(C)=O)c(OC)cc3F)OCOC2=CC1=O (stereo in doubt) [Compound 19, N-(5-((S)-2-((3aR,5S)-5-allyl-6-oxo-3a,4,5,6-tetrahydrobenzo[d][1,3]dioxol-3a-yl)propyl)-4-fluoro-2-methoxyphenyl)acetamide]	
9	33	C=CC[C@H]1C[C@]2([C@@H](C)Cc3cc(O)c(OC)cc3F)OCOC2=CC1=O [Compound 5, (6S,7aR)-6-allyl-7a-((S)-1-(2-fluoro-5-hydroxy-4-methoxyphenyl)propan-2-yl)-7,7a-dihydrobenzo[d][1,3]dioxol-5(6H)-one]	
23	59	C=CC[C@H]1C[C@]2([C@@H](C)Cc3cc(F)c(OC)cc3F)OCOC2=CC1=O [Compound 7, (6S,7aR)-6-allyl-7a-((S)-1-(2,5-difluoro-4-methoxyphenyl)propan-2-yl)-7,7a-dihydrobenzo[d][1,3]dioxol-5(6H)-one]	
230	650	C=CC[C@H]1C[C@]2([C@@H](C)Cc3cc(C)c(OC)cc3F)OCOC2=CC1=O [Compound 8, (6S,7aR)-6-allyl-7a-((S)-1-(2-fluoro-4-methoxy-5-methylphenyl)propan-2-yl)-7,7a-dihydrobenzo[d][1,3]dioxol-5(6H)-one]	
210	260	C=CC[C@H]1C[C@]2([C@H](C)Cc3cc(C(=O)OC)c(OC)cc3F)OCOC2=CC1=O [Compound 9, methyl 5-((R)-2-((3aR,5S)-5-allyl-6-oxo-3a,4,5,6-tetrahydrobenzo[d][1,3]dioxol-3a-yl)propyl)-4-fluoro-2-methoxybenzoate]	
710		C=CC[C@H]1C[C@]2([C@@H](C)Cc3ccc(OC)c(OC)c3F)OCOC2=CC1=O [Compound 20, (6S,7aR)-6-allyl-7a-((S)-1-(2-fluoro-3,4-dimethoxyphenyl)propan-2-yl)-7,7a-dihydrobenzo[d][1,3]dioxol-5(6H)-one]	
		C=CC[C@@H]1C[C@]2([C@H](C)Cc3cc(O)c(OC)cc3F)OCOC2=CC1=O [SQ 1378]	IC50 [2, 6]: 1900 nM
		C=CC[C@@H]1C[C@]2([C@@H](C)Cc3cc(O)c(OC)cc3F)OCOC2=CC1=O [SQ 1389]	IC50 [2, 6]: 2500 nM
